Measured values: patent US20260315431A1, “NANOMATERIAL ENCAPSULATED BIOFILM INHIBITORS FOR DENTAL CARIES TREATMENT” (THE UAB RESEARCH FOUNDATION, priority 2023, published 2026)
Entries after “also recorded” stand apart in the source; their conditions may differ. Marks after values point to notes of the source that are not given here.

Columns and labels:
[1] = HA5 loading into (PMAA)5 hydrogel (UV-visible spectroscopy); format: physicochemical; conditions: (PMAA)5 hydrogel cubes soaked in 5 mg/mL HA5 in methanol, 48 h
Method: Encapsulation of HA5 inside (PMAA)5 hydrogels microparticles. Compound HA5 was encapsulated in the (PMAA)5 hydrogel cubes through post-loading by soaking the hydrogels in 5 mg/mL solution of HA5 in methanol for 48 h in the dark (FIGS. 1.7A-B). The free, non-encapsulated HA5 was removed from particle solution by rinsing with HEPES buffer (pH=7.4) five times using centrifugation at 5000 rpm for 10 min. The HA5 quantification was carried out with UV-visible spectroscopy (NanoDrop One C, ThermoFisher) at λ=448 nm using an HA5 calibration curve. The drug solution was analyzed before and after the exposure to the hydrogel particles and the differences in the absorbance spectra were used to determine the loading of the drug into the hydrogel network. […] Freshly extracted, intact third molars with flat surfaces obtained from Dr. Nathaniel Lawson's lab (UAB School of Dentistry, IRB-300001291) were used in these studies. The AFM silicon probes NSG30 (NT-MDT, resonance frequency 240-440 kHz, force constant 22-100 N m^−1, tip radii is 10 nm, scan rate is 0.5 Hz) were used for imaging the tooth surfaces in tapping mode before and after hydrogel adhesion. […] The height of the dried hydrogel cubes was determined using section profiles, which indicated an average particle height of 1.3±0.2 μm. […]

GtfB = GtfB (Streptococcus mutans, UniProt P08987); test: HA5/GtfB X-ray co-crystal structure; format: binding; conditions: catalytic domain of GtfB
S. mutans UA159 = test: Gnotobiotic rat model of dental caries (HEBI / HA5 study, Example 1); format: in vivo, Fischer 344 rats infected with S. mutans UA159; set-up: key to Buccal Mean Caries Scores (±SEM) E / Buccal Mean Caries Scores (±SEM) Ds / Buccal Mean Caries Scores (±SEM) Dm / Buccal Mean Caries Scores (±SEM) Dx / Sulcal Mean Caries Scores (± SEM) E / Sulcal Mean Caries Scores (± SEM) Ds / Sulcal Mean Caries Scores (± SEM) Dm / Sulcal Mean Caries Scores (± SEM) Dx / Proximal Mean Caries Scores (± SEM) E: caries scores by the method of Keyes; conditions: for CFU/mL BAP: Blood Agar Plates; for CFU/mL BAP / CFU/mL MS / Buccal Mean Caries Scores (±SEM) Dx / Sulcal Mean Caries Scores (± SEM) Dx / Buccal Mean Caries Scores (±SEM) Dm / Sulcal Mean Caries Scores (± SEM) Dm / Buccal Mean Caries Scores (±SEM) Ds / Sulcal Mean Caries Scores (± SEM) Ds / Buccal Mean Caries Scores (±SEM) E / Proximal Mean Caries Scores (± SEM) E / Sulcal Mean Caries Scores (± SEM) E: 100 μM (NaF 250 ppm), 4 weeks; for CFU/mL MS: Mitis Salivarius agar; for Buccal Mean Caries Scores (±SEM) Dx / Sulcal Mean Caries Scores (± SEM) Dx: dentinal extensive; for Buccal Mean Caries Scores (±SEM) Dx / Sulcal Mean Caries Scores (± SEM) Dx / Buccal Mean Caries Scores (±SEM) Dm / Sulcal Mean Caries Scores (± SEM) Dm / Buccal Mean Caries Scores (±SEM) Ds / Sulcal Mean Caries Scores (± SEM) Ds / Buccal Mean Caries Scores (±SEM) E / Proximal Mean Caries Scores (± SEM) E / Sulcal Mean Caries Scores (± SEM) E: topical twice daily; for Buccal Mean Caries Scores (±SEM) Dm / Sulcal Mean Caries Scores (± SEM) Dm: dentinal moderate; for Buccal Mean Caries Scores (±SEM) Ds / Sulcal Mean Caries Scores (± SEM) Ds: dentinal slight; for Buccal Mean Caries Scores (±SEM) E / Proximal Mean Caries Scores (± SEM) E / Sulcal Mean Caries Scores (± SEM) E: enamel
Method: Reduction of S. mutans virulence in vivo by HA5 or HEBI. The effects of compound HA5 and HEBI on S. mutans virulence were evaluated using a well-established gnotobiotic rat model of dental caries 67. Hydrogel microparticles with no drug were used to ensure that the observed anti-virulence activity observed with HEBI was not related to the hydrogel material. The standard NaF (250 ppm) was included as a positive control. A (vehicle+infection only) group was included as a negative control. All rats in the experimental groups and control groups were colonized with S. mutans UA159. […] Similar reductions in caries scores were also observed in proximal enamel caries scores (Table 3). An evaluation of the effect of the treatment on proximal dentinal scores was unable to be performed as there were no significant proximal dentinal lesions for the control and treated groups in this study. […] The observed reduction in caries scores by HA5 and HEBI were similar with HEBI displaying slightly better in vivo activity, possibly due to the pH-dependent slow release. The observed reduction in caries scores by HA5 or HEBI is lower than the 250 ppm NaF treatment. However, it should be noted that the concentration of NaF (250 ppm=5.95 mM) is about 59-fold higher than HA5 (100 μM). At the end of the study, the animals were euthanized, their mandibles excised for microbiological analysis of plaque samples on MS agar plates and BAP and for scoring of caries by the method of Keyes^68 to determine the bacterial colonization. […] All in vivo experimental protocols were approved by the University of Alabama at Birmingham Institutional Animal Care and Use Committee (protocol No: IACUC-20047). The methods were carried out in accordance with the relevant guidelines and regulations.
Rat model of dental caries. In vivo studies of colonization and virulence of S. mutans were evaluated using a previously reported rat model of dental caries^71. Offspring of gnotobiotic Fischer 344 rats used in this experiment were bred and maintained in trexler isolators. Male and female rat pups were removed from isolators at 20 days of age and randomly assigned into 5 treatment groups of 5 rats/group in cages with filter tops. Rats were then infected with S. mutans UA159 strain by oral swabbing daily for four consecutive days with a fresh overnight culture of S. mutans UA159. Rats were provided with caries promoting Teklad Diet 305 containing […] (Harlan Laboratories, Inc., Indianapolis, IN) and sterile drinking water ad libitum. Oral swabs were taken 5 days post-infection and plated on Todd Hewitt (TH) agar plates and incubated at 37° C. in an environment of 5% CO2 in the air to confirm colonization. Rats were weighed at weaning and at the termination of the experiment. One-week post-infection, the molars of the rats were treated topically twice daily for 4 weeks with the test compounds using camel-hair brushes. The five treatment groups used in this study were: 1) HEBI (100 μM); 2) HA5 (100 μM); 3) hydrogel encapsulated PBS (no drug) containing 0.1% DMSO (negative control), 4) 250 ppm NaF (positive control) and 5) infected untreated group (negative control). Drinking water was withheld for 60 min following each treatment with the compound. Animals were weighed at weaning and at the termination of the experiment. On day 60, the rats were sacrificed using CO2 followed by cervical dislocation or bilateral thoracotomy. The mandibles were surgically removed and cleaned of excess tissue to assess the level of bacteria present and the extent of caries formation. The right mandibles from each rat were placed in a tube containing phosphate buffer (3 mL), placed on ice and sonicated (10 sec) to release bacteria from the molars. Each sample was serially diluted, plated on blood agar plates (BAP) and mitis-salivarius (MS) agar plates and incubated in an environment of 5% CO2 at 37° C. to quantify the level of total bacteria and S. mutans present in the plaque. […]

GtfB, sequence (P08987 265-1143): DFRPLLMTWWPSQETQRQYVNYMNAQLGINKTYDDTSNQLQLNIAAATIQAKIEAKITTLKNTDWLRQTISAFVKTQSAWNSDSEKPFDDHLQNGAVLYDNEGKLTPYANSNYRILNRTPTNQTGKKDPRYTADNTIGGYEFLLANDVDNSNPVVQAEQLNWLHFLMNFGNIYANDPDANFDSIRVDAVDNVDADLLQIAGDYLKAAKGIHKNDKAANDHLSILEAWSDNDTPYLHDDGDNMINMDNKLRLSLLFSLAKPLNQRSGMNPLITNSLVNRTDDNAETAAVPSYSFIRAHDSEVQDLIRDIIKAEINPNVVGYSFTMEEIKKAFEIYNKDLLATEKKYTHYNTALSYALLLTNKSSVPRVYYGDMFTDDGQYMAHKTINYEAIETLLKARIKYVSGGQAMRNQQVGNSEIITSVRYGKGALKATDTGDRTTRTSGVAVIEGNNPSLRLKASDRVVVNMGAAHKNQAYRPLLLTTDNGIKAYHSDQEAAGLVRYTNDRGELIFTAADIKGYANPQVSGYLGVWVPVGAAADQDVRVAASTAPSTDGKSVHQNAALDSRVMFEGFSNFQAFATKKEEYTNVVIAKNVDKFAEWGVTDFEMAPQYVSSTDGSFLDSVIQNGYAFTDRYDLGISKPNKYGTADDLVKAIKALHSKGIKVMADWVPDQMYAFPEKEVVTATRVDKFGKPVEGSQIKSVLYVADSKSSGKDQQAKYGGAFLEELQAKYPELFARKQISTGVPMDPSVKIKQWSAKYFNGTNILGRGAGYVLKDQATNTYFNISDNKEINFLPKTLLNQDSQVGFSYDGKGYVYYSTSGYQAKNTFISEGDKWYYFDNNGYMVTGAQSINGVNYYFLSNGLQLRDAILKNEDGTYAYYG

Row | Compound | loading capacity [1] | binding in HA5/GtfB co-crystal structure (GtfB) | effect on bacterial colonization (S. mutans UA159; 4-week treatment, 100 μM) | reduction in caries scores (S. mutans UA159; 4-week treatment, 100 μM) | CFU/mL BAP (S. mutans UA159) | CFU/mL MS (S. mutans UA159) | Buccal Mean Caries Scores (±SEM) Dx (S. mutans UA159) | Sulcal Mean Caries Scores (± SEM) Dx (S. mutans UA159) | Buccal Mean Caries Scores (±SEM) Dm (S. mutans UA159) | Sulcal Mean Caries Scores (± SEM) Dm (S. mutans UA159) | Buccal Mean Caries Scores (±SEM) Ds (S. mutans UA159) | Sulcal Mean Caries Scores (± SEM) Ds (S. mutans UA159) | Buccal Mean Caries Scores (±SEM) E (S. mutans UA159) | Proximal Mean Caries Scores (± SEM) E (S. mutans UA159) | Sulcal Mean Caries Scores (± SEM) E (S. mutans UA159)
1 | O=C1/C(=C/c2cc(O)c(O)cc2O)Oc2ccccc21 [HA5, 2-[(2′,4′,5′-Trihydroxyphenyl)methylidene]-2,3-dihydro-1-benzofuran-3-one] | 5.5×10^−3 ng of HA5 per particle | binding in the catalytic site of GtfB; also recorded: does not show any covalent bond | not significant; also recorded: without affecting the bacterial colonization significantly | significant reduction in buccal, sulcal, and proximal dental caries scores | 3.0 ± 1.0 CFU/mL (×10^6) | 2.5 ± 0.8 CFU/mL (×10^6) | 2.0 ± 0.7 | 4.4 ± 0.9 | 3.8 ± 0.2 | 8.8 ± 0.9 | 6.0 ± 0.4 | 16.2 ± 0.4 | 11.0 ± 0.3 | 4.0 ± 0.0 | 22.0 ± 0.6
2 | [F-].[Na+] [NaF, reference compound] | – | – | – | – | 4.0 ± 0.9 CFU/mL (×10^6) | 3.4 ± 0.5 CFU/mL (×10^6) | 0.0 ± 0.0 | 1.0 ± 0.3 | 1.0 ± 0.8 | 4.6 ± 0.2 | 2.4 ± 0.8 | 11.2 ± 0.4 | 5.0 ± 0.7 | 1.2 ± 0.8 | 14.2 ± 0.7
